Experimental findings from publication PMC10447463, “Data-mining unveils structure–property–activity correlation of viral infectivity enhancing self-assembling peptides” (Nature Communications, 2023) are described below.

This test relates to HIV-1 infection of TZM-bl cells. The test is described as follows: HIV-1 infectivity enhancement assay, β-galactosidase luminescence. Format: cell-based. The conditions noted are these: input.xlsx of the Pattern-Analysis script; infectivity relative to EF-C (peptide 59 = 1.00).
For CEFEFQF [compound 90], the infectivity was determined as 0.00521.

For the substance CEFEFQFNMWQ [compound 131], the infectivity was 0.14.

In the case of CEIEIQI [compound 2], the infectivity is on record as 0.0279.

For CEIEIQINM [compound 134], the infectivity is recorded as 0.0651.

For the substance CEIEIQINMWQ [compound 133], the infectivity is on record as 0.22.

CETMYDKILKNLSRSR [compound 57]: the infectivity came to 0.02.

In the case of CHLHLQL [compound 56], the infectivity was found to be 0.10.

In the case of CKAKAQA [compound 137], the infectivity was 0.03.

As for CKAKAQANM [compound 11], the infectivity is given as 0.03.

For CKAKAQANMWQ [compound 10], the infectivity came out at 0.0437.

In the case of CKFC [compound 50], the infectivity worked out at 0.011.

For CKFKFQF [compound 6], the infectivity was 1.23.

For the substance CKFKFQFNM [compound 5], the infectivity turned out to be 1.24.

On to CKFKFQFNMW [compound 91], for which the infectivity is listed as 0.96.

As for CKFKFQFNMWQ [compound 4], the infectivity amounted to 1.16.

For CKFKFQFW [compound 148], the infectivity worked out at 0.88.

On to CKFKQFF [compound 17], for which the infectivity worked out at 0.00675.

For the substance CKFKQFFNM [compound 16], the infectivity is 0.41.

Turning to CKFKQFFNMWQ [compound 15], the infectivity came to 0.61.

Regarding CKFQC [compound 48], the infectivity came out at 0.0227.

In the case of CKIKIQI [compound 99], the infectivity is given as 1.02.

For CKIKIQIII [compound 1], the infectivity is on record as 0.98.

For the substance CKIKIQINM [compound 98], the infectivity stood at 1.59.

With CKIKIQINMW [compound 153], the infectivity stood at 1.29.

For CKIKIQINMWQ [compound 96], the infectivity is 0.70.

For the substance CKIKIQIRGD [compound 109], the infectivity was found to be 0.33.

On to CKIKQII [compound 100], for which the infectivity came out at 0.04.

As to CKIKQIINM [compound 3], the infectivity came out at 0.50.

Consider CKIKQIINMWQ [compound 101], for which the infectivity came out at 1.24.

On to CKIKQIIRGD [compound 110], for which the infectivity was 0.05.

Turning to CKIW [compound 152], the infectivity is reported as 0.05.

For CKWKWQW [compound 94], the infectivity came out at 0.25.

For CKYKYQY [compound 92], the infectivity is reported as 0.04.

With CQFQFQF [compound 112], the infectivity amounted to 0.35.

Take CRFRFQF [compound 28]: the infectivity amounted to 0.34.

Consider CRFRVPF [compound 55], for which the infectivity came out at 0.02.

Consider CSISIQI [compound 132], for which the infectivity came to 0.0559.

As for CSISIQINM [compound 135], the infectivity worked out at 0.20.

With EFEFQF [compound 89], the infectivity is 0.00327.

Regarding EIEIEIEI [compound 82], the infectivity turned out to be 0.0178.

As for EIEIQINM [compound 155], the infectivity stood at 0.0363.

With EIEIQINMWQ [compound 162], the infectivity is listed as 0.13.

In the case of EIKIQINM [compound 149], the infectivity is 0.10.

As for FDPFDPFDP [compound 40], the infectivity is recorded as 0.0234.

Turning to FKFDKFKFDK [compound 42], the infectivity was 0.0464.

Consider HGDKCHGDKC [compound 35], for which the infectivity amounted to 0.01.

As for HGEHGE [compound 53], the infectivity turned out to be 0.00641.

HGEHGEHGE [compound 54]: the infectivity stood at 0.019.

With HHHHEIEIEIEI [compound 87], the infectivity stood at 0.03.

On to HHHHKAKAKAKAWWWW [compound 151], for which the infectivity came out at 0.09.

Consider HHHHKAKAKAKAYYYY [compound 124], for which the infectivity came out at 0.0131.

As to HHHHKIKIKIKIWWWW [compound 140], the infectivity was 0.38.

For the substance HHHHKIKIKIKIYYYY [compound 144], the infectivity is listed as 0.68.

As for HHHHKIKIQINMYYYY [compound 138], the infectivity was 1.11.

For the substance HIHIQIC [compound 29], the infectivity is reported as 0.27.

With HLHLPLL [compound 31], the infectivity is recorded as 0.01.

For HRRHFRHKITKKK [compound 45], the infectivity is 0.0136.

On to IKVAVKIKIQINM [compound 150], for which the infectivity stood at 0.50.

With ILKNLSRSRKIKIQIC [compound 128], the infectivity is 0.34.

ILKNLSRSRKIKIQINMWQ [compound 154]: the infectivity worked out at 0.32.

Regarding KAKAKAQA [compound 116], the infectivity came out at 0.00871.

With KAKAQA [compound 78], the infectivity was determined as 0.0181.

In the case of KAKAQANM [compound 136], the infectivity came out at 0.009.

KAKAQANMWQ [compound 66]: the infectivity is on record as 0.00715.

Regarding KAKQAANMWQ [compound 69], the infectivity was found to be 0.03.

With KFKFEFEF [compound 106], the infectivity was 0.0284.

For the substance KFKFKFQF [compound 118], the infectivity was found to be 0.80.

With KFKFQF [compound 80], the infectivity stood at 0.06.

For KFKFQFF [compound 121], the infectivity is recorded as 0.12.

For the substance KFKFQFFF [compound 114], the infectivity is 0.40.

As for KFKFQFN [compound 9], the infectivity was 0.018.

With KFKFQFNM [compound 8], the infectivity stood at 0.47.

In the case of KFKFQFNMW [compound 7], the infectivity is recorded as 0.45.

Take KFKFQFNMWQ [compound 67]: the infectivity is 0.76.

Take KFKFQFW [compound 147]: the infectivity is reported as 0.16.

With KFKQFFINMWQ [compound 158], the infectivity was 0.92.

Regarding KFKQFFNMWQ [compound 68], the infectivity is given as 0.09.

In the case of KIEIQINM [compound 108], the infectivity amounted to 0.0348.

With KIKIKIKI [compound 130], the infectivity is listed as 0.0326.

Consider KIKIKIKIWW [compound 139], for which the infectivity came to 0.37.

Regarding KIKIKIKIWWWW [compound 129], the infectivity is recorded as 0.59.

Take KIKIKIKIYYYY [compound 86]: the infectivity is on record as 1.38.

Take KIKIKIQI [compound 115]: the infectivity was found to be 0.10.

In the case of KIKIKIQINMWQ [compound 163], the infectivity is recorded as 0.79.

For the substance KIKIQI [compound 79], the infectivity was 0.07.

With KIKIQIAMWQ [compound 85], the infectivity is 0.39.

As for KIKIQIC [compound 125], the infectivity was found to be 0.61.

KIKIQII [compound 113]: the infectivity is given as 0.0187.

Turning to KIKIQIII [compound 122], the infectivity is on record as 0.35.

For KIKIQIMQWN [compound 160], the infectivity came out at 0.72.

With KIKIQIMWNQ [compound 159], the infectivity came out at 0.56.

With KIKIQIN [compound 77], the infectivity is on record as 0.27.

On to KIKIQINAWQ [compound 84], for which the infectivity is 0.54.

Regarding KIKIQINM [compound 76], the infectivity worked out at 0.36.

On to KIKIQINMAQ [compound 83], for which the infectivity was found to be 0.21.

In the case of KIKIQINMW [compound 75], the infectivity is listed as 2.16.

Regarding KIKIQINMWA [compound 81], the infectivity came out at 0.69.

Take KIKIQINMWQ [compound 61]: the infectivity was 0.30.

As to KIKIQINMWQRGD [compound 161], the infectivity turned out to be 0.0121.

As to KIKIQINMWWQ [compound 156], the infectivity was 3.21.

KIKIQINMWWWQ [compound 157]: the infectivity stood at 2.75.

Take KIKIQIRGD [compound 102]: the infectivity is given as 0.02.

Consider KIKIQIW [compound 146], for which the infectivity was 0.14.

Regarding KIKQII [compound 107], the infectivity is given as 0.00492.

Take KIKQIIN [compound 74]: the infectivity is 0.04.

Take KIKQIINM [compound 73]: the infectivity amounted to 0.45.

KIKQIINMWQ [compound 65]: the infectivity amounted to 0.35.

Regarding KIRGKFEKED [compound 47], the infectivity is given as 0.06.

With KKFQKKFQ [compound 37], the infectivity was found to be 0.0285.

As for KLKLKLQL [compound 117], the infectivity is recorded as 0.10.

Consider KLKLQLL [compound 120], for which the infectivity turned out to be 0.00698.

Turning to KLKQLL [compound 95], the infectivity worked out at 0.00739.

Take KNDKND [compound 52]: the infectivity is 0.0105.

Regarding KNERIKNERI [compound 46], the infectivity was 0.013.

In the case of KVKGVGK [compound 43], the infectivity is recorded as 0.0259.

On to KVKVKVQV [compound 64], for which the infectivity was 0.0173.

In the case of KVKVQVV [compound 119], the infectivity is listed as 0.00912.

As to KVKVQVVV [compound 123], the infectivity is on record as 0.0351.

As to KWKWQW [compound 93], the infectivity worked out at 0.0145.

Turning to KYKGAIIGNIK [compound 34], the infectivity turned out to be 0.0031.

Turning to KYKYQY [compound 88], the infectivity was found to be 0.01.

With MDQMDQMDQMDQMDQ [compound 39], the infectivity was determined as 0.00427.

In the case of MKFKFQF [compound 58], the infectivity is given as 0.0637.

MKFM [compound 49]: the infectivity was determined as 0.0175.

Turning to MKIKIQINM [compound 141], the infectivity is listed as 0.27.

As to MKIKIQINMWQ [compound 143], the infectivity is recorded as 0.42.

For the substance NMWQKAKAQA [compound 62], the infectivity was 0.04.

In the case of NMWQKFKFQF [compound 63], the infectivity was 0.27.
